Source: patent publication US12616759B2, “Uses of labeled HSP90 inhibitors” (Sloan-Kettering Institute for Cancer Research, priority 2011, dated 2026)

How the values were obtained:
[1] = test system: breast cancer tumor specimens; assay: ex vivo fresh tissue sections of breast cancer patient tumors, apoptosis; format: cell-based, human
From the text: Test ex vivo the sensitivity of BC samples to PU-H71.
Ex vivo sensitivity examination: Immediately following surgical removal of the mastectomy specimen the tissue is transported to the Tissue Procurement Services (TPS) area of the Pathology suite. Once the lesion is located, tissue is harvested under sterile conditions. The specimen size removed for evaluation is typically 5-10 mm×5-10 mm. Every effort is made to sample the most viable area. Distant from the lesion, a specimen of equivalent size is removed representative of normal breast epithelial tissue. Both specimens are placed in minimal essential media (MEM) with 1% penicillin/streptomycin. A small portion of the lesion and the entire piece of normal breast epithelial tissue undergo a “snap” freeze for future molecular evaluation by WB. The remaining portion of the lesion (mastectomy) is processed for pathological evaluation. For every lesion pathology provides IHC for receptor status, proliferation markers, epithelial markers and one hematoxylin/eosin (H&E) stained slide accompanied by 10 unstained to be further assessed for non-standard biomarkers (e.g. pAKT, BclxL, HSP90 and Hsp70).
From preliminary analyses we have learned that fresh tissue slicing provides a quick and more efficient ex vivo method for HSP90 inhibition evaluation than primary cell isolation. In addition, it preserves the cancer cells in the endogenous environment of the surrounding tissue. This is important since the interaction between stromal cells and tumor cells is known to play a major role in cancer growth and progression. In this method, the tissue (i.e. lesion) is placed in a plastic mold and embedded in 6% agarose. The agarose-embedded tissue is then mounted on the stage of the Vibratome that is submersed in a chilled reservoir (for tissue preservation) containing MEM with 1% penicillin/streptomycin. The tissue is then sliced using metal blades producing serial sections of the lesion that are 200 μm thick. Each section (minus the surrounding agarose-embedding media) is immediately placed in a 24-well tissue culture plate containing MEM with 1% penicillin/streptomycin. From a 5 mm×5 mm piece of tissue approximately 25 sections are produced. This allows for replicate analyses of tissue sections treated with a minimum of 4 doses of the HSP90 inhibitor and one with vehicle only. Replicates can be assayed by both IHC as well as viability assays (automatic plate reader or cytospin preparation) once tissue section undergoes enzymatic dissociation by brief exposure to dispase.
To date, forty-two specimens encompassing all BC subtypes have been acquired. Out of these, nine were of receptor status negative. […] Treatment of triple negative infiltrating ductal carcinoma (IDC) with PU-H71 attained, in a dose-dependent manner, apoptosis of both the primary tumors and lymph node metastases.

[2] = test system: FL5.12 mAKT-transfected cells; assay: apoptosis in mAKT-transfected FL5.12 cells; format: cell-based
From the text: FL5.12 was derived as an interleukin-3 (IL-3)-dependent cell line with a functional JAK/STAT pathway and it has characteristic features of an early lymphocytic progenitor. Both the parental cells and the transfected cells express moderate-levels of active AKT and STAT5, as evidenced by AKT phosphorylation on Ser473 and STAT5 phosphorylation on Tyr694, respectively. The level of p-STAT5 but not p-AKT is dependent on the presence of IL-3. Introduction of a constitutively activated, myristoylated form of AKT (mAKT) under the control of a doxycycline (DOX)-inducible promoter further allows for the regulation of p-AKT levels in these cells. All together, these cells are a good isogenic model to evaluate the dependence of HSP90 inhibitor apoptotic sensitivity on activated AKT and STAT5-pathways.
Cells: Kasumi-1, SKNO-1, MOLM-13, MO-91, HEL, HL-60, THP-1, MV4-11 were grown in RPMI media supplemented with 10 mM HEPES, 4.5 g/L glucose, 1.5 g/L sodium bicarbonate, 1 mM sodium pyruvate, 10% FBS, and 1% penicillin/streptomycin. The stable transfectants of FL5.12 were previously described (18-Karnauskas 2003). In brief, for the generation of FL5.mAKT the myristylated AKT was cloned in the doxycycline inducible vector pRevTRE (Clontech) (this clone is designated mAKT). As a control, cell were transfected with vector alone (this clone is designated Vector). For generation of FL5.mAkt.Bcl-xL, the human Bcl-xL cDNA was cloned into the EcoRI site of the pBabePuro vector, and transfected into FL5.mAkt3 as described (18) (this clone is designated mAKT.Bcl-xL). These lines were cultured as described previously using DME-HG media supplemented with 10 mM HEPES, 10% FBS media containing 1 mg/ml Geneticin (G418) (Sigma #G9516) and 1 or 2 ng/mL of IL-3 (RD Systems #403 ML).
Apoptosis Assay: Cells were treated for 24, 48 or 72 h with vehicle (DMSO) or inhibitors as indicated. Following staining with Acridine Orange and Ethidium Bromide (1:1 mix of 100 µg/ml), cells were visualized with a fluorescent microscope (Zeiss Axiovert 40 CFL) and counted. Percentage of apoptotic cells was determined from 200-300 cells counted in each group. The percentage of apoptotic cells was calculated as: % Apoptotic cells=(total number of cells with apoptotic nuclei/total number of cells counted)×100.
Western blot: Cells were grown to 60-70% confluence and treated with inhibitor or vehicle for the indicated times. Protein lysates were prepared in 50 mM Tris pH 7.4, 150 mM NaCl and 1% NP-40 lysis buffer. Protein concentrations were measured using the BCA kit (Pierce) according to the manufacturer's instructions. Protein lysates (10-100 μg) were resolved by SDS-PAGE, transferred onto nitrocellulose membrane and incubated with the indicated primary antibodies. […]

patient tumors = assay: [^124I]-PU-H71 PET/CT in cancer patients, tumor exposure to PU-H71; details: for tumor AUC: two weeks; for tumor AUC0-48 h: paratracheal node
359 kinases = assay: scanMAX kinase screen (Ambit); format: binding; details: 10 μM
MDA-MB-468 tumors = details: 75 mg/kg, reference 100; cited from earlier work
[3] = several HER2+, triple-negative and ER+ breast cancers
[4] = HER2+ breast cancer patient, 10 mg/m^2 5 times a week
[5] = HER2+ breast cancer patient, 10 mg/m^2 once a week
[6] = HER2+ breast cancer patient, 10 mg/m^2 three times a week
[7] = pancreatic cancer patient, first tumor, 80 mg/m2 2×week
[8] = pancreatic cancer patient, left lung, 20 mg/m2 twice-week
[9] = pancreatic cancer patient, right hilum LN, 20 mg/m2 twice-week
[10] = pancreatic cancer patient, second tumor, 80 mg/m2 2×week

Question: For CC(C)NCCCn1c(Sc2cc3c(cc2I)OCO3)nc2c(N)ncnc21 [PU-H71], which “effect on normal and benign tissue” value ([1]; 48 hour exposure) is on record?
Answer: remained unaltered

Question: What about the apoptosis ([1]; TNBC partly resistant group, 1-2.5 uM) of the same compound?
Answer: ~50%

Question: And the apoptosis ([1]; TNBC sensitive group, 1 uM)?
Answer: 100%

Question: And the apoptosis ([1]; TNBC very sensitive group, 0.5 uM)?
Answer: 100%

Question: And the apoptosis ([1]; resistant, PT #14)?
Answer: no apoptosis noted at any of the tested concentrations

Question: What about the “concentration inducing about 50% apoptosis” value [1, 3] of the same compound?
Answer: 0.05 µM

Question: And the “concentration inducing about 100% apoptosis” value [1, 3]?
Answer: 0.5 µM

Question: And the apoptotic cells ([2]; p-AKT increased by Dox)?
Answer: 50%

Question: And the apoptotic cells ([2]; without Dox)?
Answer: 35-40%

Question: What about the average tumor concentration (patient tumors; [4]) of the same compound?
Answer: 0.81 µM

Question: What about the “tumor AUC0-336 h” value (patient tumors; [4]) of the same compound?
Answer: 189.8 μM-h

Question: What about the average tumor concentration (patient tumors; [5]) of the same compound?
Answer: 0.41 µM

Question: What about the “tumor AUC0-336 h” value (patient tumors; [5]) of the same compound?
Answer: 54 μM-h

Question: And the average tumor concentration (patient tumors; [6])?
Answer: 0.71 µM

Question: And the “tumor AUC0-336 h” value (patient tumors; [6])?
Answer: 140.8 μM-h

Question: And the average tumor concentration (patient tumors; HER2+ breast cancer patient, 10 mg/m^2 twice a week)?
Answer: 0.59 µM

Question: What about the “tumor AUC0-336 h” value (patient tumors; HER2+ breast cancer patient, 10 mg/m^2 twice a week for two weeks) of the same compound?
Answer: 103 μM-h

Question: And the average tumor concentration (patient tumors; [7])?
Answer: > 2.8 µM

Question: And the tumor exposure (patient tumors; [7])?
Answer: above 760 uM-h

Question: What about the average tumor concentration (patient tumors; [8]) of the same compound?
Answer: 0.71 µM

Question: What about the “tumor AUC” value (patient tumors; [8]) of the same compound?
Answer: 190 μM-h

Question: What about the average tumor concentration (patient tumors; [9]) of the same compound?
Answer: 1.57 µM

Question: What about the “tumor AUC” value (patient tumors; [9]) of the same compound?
Answer: 499 μM-h

Question: What about the average tumor concentration (patient tumors; [10]) of the same compound?
Answer: > 6.3 µM

Question: What about the tumor exposure (patient tumors; [10]) of the same compound?
Answer: > 1998 uM-h

Question: And the “tumor AUC0-48 h” value (patient tumors; 10 mg/m^2, estimated from [^124I]-PU-H71 PET)?
Answer: 24.9 μM-h

Question: And the “tumor AUC0-48 h” value (patient tumors; co-injection with 10 mg/m2 PU-H71)?
Answer: 22.3 μM-h

Question: And the kinase hits (359 kinases)?
Answer: Only SNARK (NUAK family SNF1-like kinase 2) (red dot on the kinase tree) appears as a potential low affinity kinase hit

Question: And the anti-tumor effect (MDA-MB-468 tumors)?
Answer: tumor regression and cures
